Measured values reported in publication PMC3413639 (PLoS ONE, 2012).
Values joined by “and” are separate entries in the source; they are usually repeats but may differ in a detail not shown here. Equal values may be shown once. Read-outs that look alike come from different tables or passages of the source.

Biological target: T1, 5-HT1A receptors (Rattus norvegicus, UniProt P19327)
T1 sequence (P19327 1-422): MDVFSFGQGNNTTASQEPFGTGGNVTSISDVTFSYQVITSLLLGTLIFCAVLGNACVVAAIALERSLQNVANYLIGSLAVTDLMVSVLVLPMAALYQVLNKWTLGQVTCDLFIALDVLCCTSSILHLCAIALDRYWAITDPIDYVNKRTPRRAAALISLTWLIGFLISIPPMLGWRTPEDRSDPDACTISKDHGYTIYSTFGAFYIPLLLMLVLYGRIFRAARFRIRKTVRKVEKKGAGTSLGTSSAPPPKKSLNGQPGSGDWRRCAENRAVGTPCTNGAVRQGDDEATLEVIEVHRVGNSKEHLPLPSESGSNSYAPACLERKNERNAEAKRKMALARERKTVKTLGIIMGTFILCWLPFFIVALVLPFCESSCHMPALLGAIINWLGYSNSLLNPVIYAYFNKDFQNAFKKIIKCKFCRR
Assay: [11C]WAY-100635-PET, BPND and 5-HT1A receptor occupancy
Format: in vivo
Set-up: Twenty-micrometer-thick frozen brain sections were preincubated; from tissue; host or cells: rat brain (hippocampus and raphe nucleus): frozen sections or living animals
Conditions: for BPND Hippocampus / BPND Raphe: [11C]WAY-100635, about 5 h before scan, mean ± S.E.; for receptor occupancy at 1 mg/kg / receptor occupancy at 3 mg/kg / receptor occupancy at 10 mg/kg / receptor occupancy at 30 mg/kg / receptor occupancy at 100 mg/kg: rat
Experimental: All PET scans were carried out using a microPET Focus 220 scanner (Siemens Medical Solutions USA, Knoxville, TN). The rats were anesthetized with 1.5–2% isoflurane in air (2 L/min flow rate). […] All list-mode data were stored into 3D sinograms, which were then Fourier-rebinned into 2D sinograms (26 frames: 4×1, 8×2, and 14×5 min). Images were reconstructed using 2D-filtered back-projection with a 0.5-mm Hanning filter. All PET images were manually coregistered to the MRI template by spatial translation and rotation of original PET images without geometric expansion and contraction. ROIs were placed on the hippocampus and raphe nucleus using PMOD® image analysis software (PMOD Group, Zurich, Switzerland) with reference to the MRI template. Fine-tuning of the location of ROIs was then performed based on PET images at an early phase (0–30 min) of the scan in order to compensate for small mismatches between coregistered PET and MR images. The cerebellum was used as reference tissue because of its negligible density of 5-HT1A receptors.

[1] = po, read-out: Occupancy (%) Hippocampus
[2] = po, read-out: Occupancy (%) Raphe

Cc1nnc(-c2cc3c(OC[C@@H](O)CN4CCC(c5ccc(Cl)c(Cl)c5)CC4)cccc3o2)o1.Cl [Wf-516, (2S)-1-[4-(3,4-dichlorophenyl)piperidin-1-yl]-3-[2-(5-methyl-1,3,4-oxadiazol-2-yl)benzo[b]furan-4-yloxy]propan-2-ol monohydrochloride]
BPND Hippocampus (1 mg/kg oral): 5.612±0.356
BPND Raphe (1 mg/kg oral): 2.128±0.109
BPND Hippocampus (3 mg/kg oral): 5.589±0.410
BPND Raphe (3 mg/kg oral): 2.024±0.097
BPND Hippocampus (10 mg/kg oral): 4.937±0.550
BPND Raphe (10 mg/kg oral): 1.620±0.126
BPND Hippocampus (30 mg/kg oral): 4.836±0.441
BPND Raphe (30 mg/kg oral): 1.271±0.194
BPND Hippocampus (100 mg/kg oral): 4.962±0.400
BPND Raphe (100 mg/kg oral): 1.212±0.073
Difference in maximal occupancy between hippocampus and raphe nucleus (oral, PET regression curves): more than 2.5 fold
Maximal occupancy as calculated by the regression curve (raphe nucleus, oral, PET): 53.8% and ~50%
receptor occupancy at 1 mg/kg [1]: 7 ± 2.7%
receptor occupancy at 3 mg/kg [1]: 6.8 ± 7.1%
receptor occupancy at 10 mg/kg [1]: 18.8 ± 6%
receptor occupancy at 30 mg/kg [1]: 20.3 ± 4.1%
receptor occupancy at 100 mg/kg [1]: 17.8 ± 4.9%
receptor occupancy at 1 mg/kg [2]: 8.5 ± 7.6%
receptor occupancy at 3 mg/kg [2]: 13.2 ± 6.1%
receptor occupancy at 10 mg/kg [2]: 30.6 ± 6.4%
receptor occupancy at 30 mg/kg [2]: 46.3 ± 6.9%
receptor occupancy at 100 mg/kg [2]: 48.2 ± 3.3%
receptor occupancy at 3 mg/kg (3 mg/kg oral, PET, read-out: Difference in occupancy between hippocampus and raphe nucleus): ~100%
